Results published in patent US20260232597A1, “PHARMACEUTICAL COMPOSITION OF TRAMETINIB AND PROCESS OF PREPARATION THEREOF” (ALEMBIC PHARMACEUTICALS LIMITED, priority 2023, published 2026).
Values after ≈ are worked out from the molar mass of the structure shown.

Columns and labels:
[1] = Dissolution studies for Example 2 (TA0 to TA14); assay type: physicochemical; conditions: 4.5 Acetate Buffer + 0.75% SLS, Type II, 500 mL, 60 RPM
[2] = Saturation solubility of drug substance in different dissolution media (incubator shaker, 24 hrs, HPLC); assay type: physicochemical; conditions: 37° C.; for solubility at 24 h: thermodynamic from solid
Procedure: Solubility study of drug substance was carried out in different dissolution media. The saturated solutions of drug substance were prepared in the recommended dissolution media. Initial pH of the saturated solutions was noted. Then the solutions were allowed to shake for 24 hours in the incubator shaker at 150 RPM. The temperature was kept around 37° C.±0.5° C. After 24 hours of shaking, pH of saturated solutions was noted. Further dilutions of these solutions were made as per the standard concentration. Analysis was carried out using HPLC technique. The sample was prepared in triplicates for saturation solubility determination.

[3] = cited from earlier work
[4] = as disclosed in US'304 patent; cited from earlier work
[5] = pH 4.5 Acetate Buffer + 0.75% SDS
[6] = pH 6.8 Phosphate Buffer + 0.75% SDS
[7] = pH 7.0 Phosphate Buffer + 0.75% SDS

CC(=O)Nc1cccc(-n2c(=O)n(C3CC3)c(=O)c3c(Nc4ccc(I)cc4F)n(C)c(=O)c(C)c32)c1.CC(=O)O [TA2, Trametinib acetic acid solvate]
% DR ([1]; 5 mins): 2% | % DR ([1]; 10 mins): 3% | % DR ([1]; 15 mins): 5% | % DR ([1]; 20 mins): 7% | % DR ([1]; 30 mins): 9% | % DR ([1]; 45 mins): 13% | % DR ([1]; 60 mins): 16% | % DR ([1]; 90 mins): 23% | % DR ([1]; 120 mins): 29%

CC(=O)Nc1cccc(-n2c(=O)n(C3CC3)c(=O)c3c(Nc4ccc(I)cc4F)n(C)c(=O)c(C)c32)c1.C[S+](C)[O-] [Trametinib DMSO, Trametinib dimethyl sulfoxide]
Average solubility ([2]; 0.1N HCl + 0.75% SDS): 50 µg/mL | Solubility mg/250 mL ([2]; 0.1N HCl + 0.75% SDS): 11.7 mg/250 mL | Solubility mg/500 mL ([2]; 0.1N HCl + 0.75% SDS): 23 mg/500 mL | Solubility mg/900 mL ([2]; 0.1N HCl + 0.75% SDS): 42 mg/900 mL | Solubility mg/250 mL ([2]; 0.1N HCl): 0.8 mg/250 mL | Solubility mg/500 mL ([2]; 0.1N HCl): 2 mg/500 mL | Solubility mg/900 mL ([2]; 0.1N HCl): 3 mg/900 mL | Average solubility [2, 5]: 240 µg/mL | Solubility mg/250 mL [2, 5]: 60.0 mg/250 mL | Solubility mg/500 mL [2, 5]: 120 mg/500 mL | Solubility mg/900 mL [2, 5]: 216 mg/900 mL | Solubility mg/250 mL ([2]; pH 4.5 Acetate Buffer): 0.0 mg/250 mL | Solubility mg/500 mL ([2]; pH 4.5 Acetate Buffer): 0 mg/500 mL | Solubility mg/900 mL ([2]; pH 4.5 Acetate Buffer): 0 mg/900 mL | Average solubility [2, 6]: 70 µg/mL | Solubility mg/250 mL [2, 6]: 18.3 mg/250 mL | Solubility mg/500 mL [2, 6]: 37 mg/500 mL | Solubility mg/900 mL [2, 6]: 66 mg/900 mL | Solubility mg/250 mL ([2]; pH 6.8 Phosphate Buffer): 0.0 mg/250 mL | Solubility mg/500 mL ([2]; pH 6.8 Phosphate Buffer): 0 mg/500 mL | Solubility mg/900 mL ([2]; pH 6.8 Phosphate Buffer): 0 mg/900 mL | Average solubility [2, 7]: 70 µg/mL | Solubility mg/250 mL [2, 7]: 18.3 mg/250 mL | Solubility mg/500 mL [2, 7]: 37 mg/500 mL | Solubility mg/900 mL [2, 7]: 66 mg/900 mL | Solubility mg/250 mL ([2]; pH 7.0 Phosphate Buffer): 0.0 mg/250 mL | Solubility mg/500 mL ([2]; pH 7.0 Phosphate Buffer): 0 mg/500 mL | Solubility mg/900 mL ([2]; pH 7.0 Phosphate Buffer): 0 mg/900 mL | Solubility in aqueous media ([3]; pH range of 2 to 8): practically insoluble | % DR ([1]; 5 mins): 27% | % DR ([1]; 10 mins): 34% | % DR ([1]; 15 mins): 38% | % DR ([1]; 20 mins): 39% | % DR ([1]; 30 mins): 41% | % DR ([1]; 45 mins): 42% | % DR ([1]; 60 mins): 43% | % DR ([1]; 90 mins): 44% | % DR ([1]; 120 mins): 44%

CC(=O)Nc1cccc(-n2c(=O)n(C3CC3)c(=O)c3c(Nc4ccc(I)cc4F)n(C)c(=O)c(C)c32)c1 [Trametinib, N-(3-{3-Cyclopropyl-5-[(2-fluoro-4-iodophenyl)amino]-6,8-dimethyl-2,4,7-trioxo-3,4,6,7-tetrahydropyrido[4,3-d]pyrimidin-1 (2H)-yl}phenyl) acetamide]
Exposure and absorption upon in vivo administration [4]: poor exposure and absorption | Solubility mg/250 mL ([2]; 0.1N HCl + 0.75% SDS): 17 mg/250 mL | Solubility mg/500 mL ([2]; 0.1N HCl + 0.75% SDS): 33 mg/500 mL | Solubility mg/900 mL ([2]; 0.1N HCl + 0.75% SDS): 60 mg/900 mL | Solubility mg/250 mL ([2]; 0.1N HCl): 4.2 mg/250 mL | Solubility mg/500 mL ([2]; 0.1N HCl): 8 mg/500 mL | Solubility mg/900 mL ([2]; 0.1N HCl): 15 mg/900 mL | solubility at 24 h ([2]; aqueous buffer, pH 4.5 Acetate Buffer): 10 µg/mL (≈ 16.2 µM) | solubility at 24 h ([2]; aqueous buffer, pH 6.8 Phosphate Buffer): 20 µg/mL (≈ 32.5 µM) | solubility at 24 h ([2]; aqueous with cosolvent or surfactant or cyclodextrin, 0.1N HCl + 0.75% SDS): 70 µg/mL | solubility at 24 h ([2]; aqueous with cosolvent or surfactant or cyclodextrin, pH 4.5 Acetate Buffer + 0.75% SDS): 100 µg/mL | solubility at 24 h ([2]; aqueous with cosolvent or surfactant or cyclodextrin, pH 6.8 Phosphate Buffer + 0.75% SDS): 10 µg/mL | solubility at 24 h ([2]; aqueous with cosolvent or surfactant or cyclodextrin, pH 7.0 Phosphate Buffer + 0.75% SDS): 10 µg/mL | Solubility mg/250 mL [2, 5]: 24 mg/250 mL | Solubility mg/500 mL [2, 5]: 48 mg/500 mL | Solubility mg/900 mL [2, 5]: 87 mg/900 mL | Solubility mg/250 mL ([2]; pH 4.5 Acetate Buffer): 2.5 mg/250 mL | Solubility mg/500 mL ([2]; pH 4.5 Acetate Buffer): 5 mg/500 mL | Solubility mg/900 mL ([2]; pH 4.5 Acetate Buffer): 9 mg/900 mL | Solubility mg/250 mL [2, 6]: 3 mg/250 mL | Solubility mg/500 mL [2, 6]: 5 mg/500 mL | Solubility mg/900 mL [2, 6]: 9 mg/900 mL | Solubility mg/250 mL ([2]; pH 6.8 Phosphate Buffer): 4.2 mg/250 mL | Solubility mg/500 mL ([2]; pH 6.8 Phosphate Buffer): 8 mg/500 mL | Solubility mg/900 mL ([2]; pH 6.8 Phosphate Buffer): 15 mg/900 mL | Solubility mg/250 mL [2, 7]: 3 mg/250 mL | Solubility mg/500 mL [2, 7]: 5 mg/500 mL | Solubility mg/900 mL [2, 7]: 9 mg/900 mL | Solubility mg/250 mL ([2]; pH 7.0 Phosphate Buffer): 0.0 mg/250 mL | Solubility mg/500 mL ([2]; pH 7.0 Phosphate Buffer): 0 mg/500 mL | Solubility mg/900 mL ([2]; pH 7.0 Phosphate Buffer): 0 mg/900 mL | solubility at 24 h ([2]; simulated gastric fluid, 0.1N HCl): 20 µg/mL (≈ 32.5 µM) | Solubility relative to dimethyl sulfoxide solvate ([3]; as disclosed in US'304 patent): much less soluble than dimethyl sulfoxide solvate of Trametinib | % DR ([1]; 5 mins): 9% | % DR ([1]; 10 mins): 11% | % DR ([1]; 15 mins): 12% | % DR ([1]; 20 mins): 13% | % DR ([1]; 30 mins): 14% | % DR ([1]; 45 mins): 16% | % DR ([1]; 60 mins): 17% | % DR ([1]; 90 mins): 19% | % DR ([1]; 120 mins): 21%
